# Where two headings read alike, the source gives them in different places.
# System: NLRP3
# Assay: IL-1β secretion assay in PMA-differentiated, LPS/nigericin-stimulated THP-1 cells (384-well, ELISA read-out)
# Format: cell-based, human
# Settings: Homo sapiens
# Method in brief: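 THP-1 cells differentiated with PMA (5 ng/mL, 40 h), primed in serum-free medium with 25 ng/mL LPS for 2 h, treated with compounds 1 h (0.5% DMSO), then stimulated with nigericin for 2 h at 37 °C. Supernatant IL-1β measured by ELISA; responses normalized to LPS+5 μM nigericin and LPS-only controls.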
# [1] = THP-1, IL-1β secretion, PMA-differentiated THP-1 cells, LPS then nigericin stimulation, ELISA read at 450 nm, read-out: Activity
# [2] = THP-1, Table 4, IL-1β secretion, LPS/nigericin-stimulated THP-1 cells, read-out: IC50
Compound,IC50 [1],IC50 [2]
"Cc1nc(NC(=O)CN2CC3(CC3)c3cc(Br)ccc3C2=O)ncc1F [Example 184, 2-(6-bromo-1-oxospiro[3H-isoquinoline-4,1′-cyclopropane]-2-yl)-N-(5-fluoro-4-methylpyrimidin-2-yl)acetamide]",< 10 µM,0.651 µM
"COc1cnc(NC(=O)CN2CC3(CC3)c3cc(Br)ccc3C2=O)nc1 [Example 185, 2-(6-bromo-1-oxospiro[3H-isoquinoline-4,1′-cyclopropane]-2-yl)-N-(5-methoxypyrimidin-2-yl)acetamide]",< 10 µM,0.469 µM
"O=C(CN1CC2(CC2)c2cc(Br)ccc2C1=O)Nc1ncc(-n2cccn2)cc1F [Example 186, 2-(6-bromo-1-oxospiro[3H-isoquinoline-4,1′-cyclopropane]-2-yl)-N-(3-fluoro-5-pyrazol-1-ylpyridin-2-yl)acetamide]",< 10 µM,5.23 µM
"Cc1nc(-c2ccnc(NC(=O)CN3CC4(CC4)c4cc(Br)ccc4C3=O)n2)cs1 [Example 187, 2-(6-bromo-1-oxospiro[3H-isoquinoline-4,1′-cyclopropane]-2-yl)-N-[4-(2-methyl-1,3-thiazol-4-yl)pyrimidin-2-yl]acetamide]",< 10 µM,0.871 µM
"O=C(CN1CC2(CC2)c2cc(Br)ccc2C1=O)Nc1nc2n(n1)CCC2 [Example 188, 2-(6-bromo-1-oxospiro[3H-isoquinoline-4,1′-cyclopropane]-2-yl)-N-(6,7-dihydro-5H-pyrrolo[1,2-b][1,2,4]triazol-2-yl)acetamide]",< 10 µM,1.29 µM
"Cn1ncc2nc(NC(=O)CN3CC4(CC4)c4cc(Br)ccc4C3=O)ccc21 [Example 189, 2-(6-bromo-1-oxospiro[3H-isoquinoline-4,1′-cyclopropane]-2-yl)-N-(1-methylpyrazolo[4,3-b]pyridin-5-yl)acetamide]",< 10 µM,3.76 µM
"Cn1cc2nc(NC(=O)CN3CC4(CC4)c4cc(Br)ccc4C3=O)ccc2n1 [Example 190, 2-(6-bromo-1-oxospiro[3H-isoquinoline-4,1′-cyclopropane]-2-yl)-N-(2-methylpyrazolo[4,3-b]pyridin-5-yl)acetamide]",< 10 µM,0.691 µM
"O=C(CN1CC2(CC2)c2cc(Br)ccc2C1=O)Nc1ccc2ccncc2c1 [Example 191, 2-(6-bromo-1-oxospiro[3H-isoquinoline-4,1′-cyclopropane]-2-yl)-N-isoquinolin-7-ylacetamide]",< 10 µM,1.15 µM
"O=C(CN1CC2(CC2)c2cc(Br)ccc2C1=O)Nc1ncncn1 [Example 192, 2-(6-bromo-1-oxospiro[3H-isoquinoline-4,1′-cyclopropane]-2-yl)-N-(1,3,5-triazin-2-yl)acetamide]",< 10 µM,0.309 µM
"O=C(CN1CC2(CC2)c2cc(Br)ccc2C1=O)Nc1ncc(C(F)(F)F)cn1 [Example 193, 2-(6-bromo-1-oxospiro[3H-isoquinoline-4,1′-cyclopropane]-2-yl)-N-[5-(trifluoromethyl)pyrimidin-2-yl]acetamide]",< 10 µM,0.24 µM
"O=C(CN1CC2(CC2)c2cc(Br)ccc2C1=O)Nc1ncc(C2CC2)cn1 [Example 194, 2-(6-bromo-1-oxospiro[3H-isoquinoline-4,1′-cyclopropane]-2-yl)-N-(5-cyclopropylpyrimidin-2-yl)acetamide]",< 10 µM,0.39 µM
"O=C(CN1CC2(CC2)c2cc(Br)ccc2C1=O)Nc1ccc(C(F)F)cn1 [Example 195, 2-(6-bromo-1-oxospiro[3H-isoquinoline-4,1′-cyclopropane]-2-yl)-N-[5-(difluoromethyl)pyridin-2-yl]acetamide]",< 10 µM,1.01 µM
"O=C(CN1CC2(CC2)c2cc(Br)ccc2C1=O)Nc1ccc(Cl)cn1 [Example 196, 2-(6-bromo-1-oxospiro[3H-isoquinoline-4,1′-cyclopropane]-2-yl)-N-(5-chloropyridin-2-yl)acetamide]",< 10 µM,0.516 µM

# From patent US20230416205A1, “COMPOUNDS, COMPOSITIONS, AND METHODS” (Denali Therapeutics Inc, priority 2020, published 2023)
